“And” between values parts separate entries of the source, which are not always exact repeats. Identical values can stand only once. Values belong to the compound of their own block, whether it stands above or below them.
What was measured:
Assay type in all cases: cell-based, human
ARE = assay: ARE-luc reporter assay; conditions: IMR-32 cells
Description: IMR-32 cells (33,000 cells/well) were transiently transfected with ARE-luc plasmid (100 ng/well) using FuGENE® HD (Roche Diagnostics) as a transfection reagent (1:3, w/v). The cells were dispensed into each well of a 96-well plate and incubated for 24 h. They were then treated with solvent control (DMSO or EtOH, 1%, v/v) or individual extracts/fractions/compounds for 24 h before ARE activities were detected by using BriteLite detection reagent (PerkinElmer). Relative fold activation for the treated samples over solvent control was reported. The ARE-luciferase (ARE-luc) reporter contains the ARE sequence of human NQO1: 5′-[…]-3′ [Moehlenkamp, J. D.; Johnson, J. A. Activation of antioxidant/electrophile-responsive elements in IMR-32 human neuroblastoma cells. Arch Biochem Biophys. 363:98-106; 1999].

glutathione = assay: Glutathione assay in IMR-32 cells
Description: Glutathione assays were performed following the manufacturer's protocol (Sigma). Briefly, IMR-32 cells (800,000 cells/well) were seeded into 6-well plates and incubated at 37° C. The cells were then treated with solvent control (EtOH, 0.5%, v/v) or compound 1 for the indicated period of time. At the end of each treatment, the cells were washed twice with Dulbecco's phosphate buffered saline (DPBS), harvested in 200 μl of DPBS, and pelleted at 600×g for 10 min at 4° C. After removal of DPBS, the cell pellet was deproteinized and re-suspended in 3 volumes of 5% sulfosalicylic acid solution (v/v). The suspension was frozen (liquid N2) and thawed (37° C. water bath) twice and then incubated at 4° C. for 5 min. The cell debris was spun down at 10,000×g for 10 min at 4° C. The supernatant was transferred to fresh tubes and used as glutathione stock. The concentration of the total glutathione (GSH+GSSG) was measured and compared with a standard curve of reduced glutathione (GSH).

NQO1 [1] = assay: RNA interference (NRF2 siRNA) and NQO1 immunoblot; conditions: IMR-32 cells, NRF2 siRNA 48 h, then 24 h treatment
Description: (§1) IMR-32 cells (800,000 cells/well) were seeded into each well of 6-well plates. 24 h later, cells were treated with solvent control (EtOH, 0.5%, v/v) or fractions/compounds. After another 24 h, whole cell lysates were collected in PhosphoSafe buffer (Novagen) following the manufacturer's protocol and stored at −80° C. until analyzed. For each sample, the protein concentration was measured using a BCA assay kit (Pierce). Samples containing equal amount of total protein were separated by SDS-PAGE (NuPAGE® Novex® 4-12% Bis-Tris Mini gels, Invitrogen), transferred onto a PVDF membrane, and incubated overnight with the indicated primary antibodies at 4° C. on an orbital shaker. The membranes were then incubated with the corresponding secondary antibodies (HRP-linked) for 1 h at room temperature and detected with Supersignal Femto Western Blotting kit (Pierce). Anti-NQO1 (mouse) antibody was from Abcam; anti-β-actin (rabbit), anti-mouse-HRP, and anti-rabbit-HRP antibodies were from Cell Signaling Technology.
IMR-32 cells (600,000 cells/well) were seeded in 6-well plates and incubated at 37° C. for 24 h. […] The treated cells were then lysed in PhosphoSafe buffer and whole cell lysates analyzed by immunoblot (see above). […]

NQO1 [2] = assay: NQO1 protein expression by immunoblot in IMR-32 cells; conditions: 24 h
Description: as §1

NRF2 = NRF2 mRNA levels by qPCR in IMR-32 cells; conditions: 1-10 μg/ml, 12 h
Description: (§2) Cultured cells were treated in the same way as described for the immunoblot experiments. After 12 h, total RNA was extracted using a commercial kit (RNeasy Mini Kit, Qiagen). For mice tissues, total RNA was extracted using TRIzol® reagent (Invitrogen) following the standard manufacturer's protocol.
(§3) cDNA synthesis and qPCR experiments for both cultured cells and mice tissues were performed following the same procedure. 2 μg of each RNA sample was reverse-transcribed into cDNA, which served as a template for TagMan® gene expression assays (Applied Biosystems). For each qPCR run, a total reaction volume of 25 μl was prepared consisting of 12.5 μl of TaqMan 2× universal master mix, 1.25 μl of a 20× TaqMan gene expression assay probe, 1 μl of cDNA and 10.25 μl of RNase-free sterile water. The reactions were dispensed into 96-well optical reaction plates (Applied Biosystems) and detected in an Applied Biosystems® 7300 Real-Time PCR System. The thermocycler program consisted of 2 min at 50° C., 10 min at 95° C., and 40 cycles of 95° C. for 15 s and 60° C. for 1 min. For normalization, GAPDH expression was used as an internal control for human cells (IMR-32) and β-actin for mice tissue samples.

NQO1 [3] = assay: NQO1 mRNA levels by qPCR in IMR-32 cells; conditions: 1 μg/ml, 12 h
Description: as §2, §3

NQO1 [4] = assay: Kinase inhibitor pre-treatment and NQO1 immunoblot; conditions: 10 μg/ml, 24 h, 30 min pre-treatment with PD98059 50 μM
Description: as §1
For assays in the presence of an antioxidant, the cells were pretreated with excess NAC (1 mM, pH 7.50) for 2 h before they were treated with solvent control or the compounds (see above). […]

[5] = 10 μg/ml, 24 h, over solvent control
[6] = 32 μg/ml, 24 h, over solvent control

Structure (SMILES): CCCCCCCC(=O)/C=C/CCCCCC(=O)O [Compound 2, 7(E)-9-keto-hexadec-7-enoic acid]
ARE activation (ARE; [5]): 2.8 fold
ARE activation (ARE; [6]): 30.3 fold

Structure (SMILES): CCCCCCCCCC(=O)/C=C/CCCCCC(N)=O [Compound 3, 7(E)-9-keto-octadec-7-enamide]
ARE activation (ARE; [5]): 4.5 fold
ARE activation (ARE; [6]): 13.2 fold

NQO1 expression in the presence of a MAPK (MEK1) inhibitor (NQO1 [4]): induced
Structure (SMILES): CCCCCCCCCC(=O)/C=C/CCCCCC(=O)O [Compound 1, 7(E)-9-keto-octadec-7-enoic acid]
glutathione level restored relative to basal level (glutathione; at 16 h): more than 50%
transient decrease of glutathione level (glutathione; until 8 h): < 30% and ~30%
glutathione level versus baseline (glutathione; up to 24 h): stayed above baseline
NQO1 expression in NRF2-depleted cells (NQO1 [1]): virtually undetectable
NQO1 protein expression (NQO1 [2]): detectable starting at 1 μg/ml and was the highest at 10 μg/ml
ARE activation (ARE; [5]): 17.6 fold
NRF2 mRNA levels (NRF2): remained unchanged
NQO1 mRNA level (NQO1 [3]): 1.5 fold

Structure (SMILES): CC(C)(C)c1cc(O)ccc1O [tBHQ, reference compound]
ARE activation (ARE; positive control, concentration not given): 14.9 fold

From patent US10010569B2, “Seaweed extracts, unsaturated fatty acids, and methods of treatment” (priority 2012, dated 2018)
